Test results as given in ChEMBL document CHEMBL1151989, “Antineoplastic agents. 578. Synthesis of stilstatins 1 and 2 and their water-soluble prodrugs” (J Nat Prod, 2009).
In brackets after ≈: the same amount, converted by molar mass.

Experiments:
[1] = system: NCI-H460; experiment: Antitumor activity against human NCI-H460 cells by sulforhodamine B assay; assay type: functional
[2] = system: KM-20L2; experiment: Antitumor activity against human KM20L2 cells by sulforhodamine B assay; assay type: functional
[3] = system: MCF7; experiment: Antitumor activity against human MCF7 cells by sulforhodamine B assay; assay type: functional
[4] = system: SF-268; experiment: Antitumor activity against human SF268 cells by sulforhodamine B assay; assay type: functional
[5] = system: DU-145; experiment: Antitumor activity against human DU145 cells by sulforhodamine B assay; assay type: functional
[6] = system: P388; experiment: In vitro growth inhibition against mouse P388 cells
[7] = system: BXPC-3; experiment: Antitumor activity against human BxPC3 cells by sulforhodamine B assay; assay type: functional
[8] = Aqueous solubility of compound in water; assay type: physicochemical
[9] = (§1) Antitumor activity against human KAT4 cells by sulforhodamine B assay; assay type: functional; details: KAT-4
[10] = system: SW-1736; experiment: Antitumor activity against human SW1736 cells by sulforhodamine B assay; assay type: functional
[11] = system: KAT-4; experiment: as §1; assay type: functional

Row | Molecule | GI50 [1] | GI50 [2] | GI50 [3] | GI50 [4] | GI50 [5] | ED50 [6] | GI50 [7] | solubility [8] | GI50 [9] | GI50 [10] | GI50 [11]
1 | COc1cc(/C=C\c2ccc(OC)c(OP(=O)([O-])[O-])c2OP(=O)([O-])[O-])cc(OP(=O)([O-])[O-])c1OC.[K+].[K+].[K+].[K+].[K+].[K+] | 0.3 mg/L | 2.9 mg/L | 0.15 mg/L | 0.3 mg/L | 0.22 mg/L | 0.12 mg/L | 0.75 mg/L | – | – | – | –
2 | COc1ccc(/C=C\c2cc(OC)c(OC)c(OC)c2)cc1OP(=O)([O-])[O-].[Na+].[Na+] [FOSBRETABULIN DISODIUM] | 0.0004 mg/L | – | – | – | 0.0007 mg/L | 0.0029 mg/L | 0.23 mg/L | 20 mg/mL | – | – | –
3 | COc1cc(/C=C\c2ccc(OC)c(OP(=O)([O-])[O-])c2OP(=O)([O-])[O-])cc2c1OCO2.[K+].[K+].[K+].[K+] | 1.4 mg/L | > 10 mg/L | 0.39 mg/L | 0.65 mg/L | 0.93 mg/L | 0.17 mg/L | 5.3 mg/L | – | 9.6 mg/L | > 10 mg/L | –
4 | COc1cc(/C=C\c2ccc(OC)c(OP(=O)([O-])[O-])c2OP(=O)([O-])[O-])cc(OP(=O)([O-])[O-])c1OC.[Li+].[Li+].[Li+].[Li+].[Li+].[Li+] | 0.35 mg/L | 6.1 mg/L | 0.36 mg/L | 0.76 mg/L | 0.82 mg/L | 0.028 mg/L | 5.8 mg/L | – | – | – | –
5 | COc1cc(/C=C\c2ccc(OC)c(OP(=O)([O-])[O-])c2OP(=O)([O-])[O-])cc(OP(=O)([O-])[O-])c1OC.[Rb+].[Rb+].[Rb+].[Rb+].[Rb+].[Rb+] | 3.3 mg/L | > 10 mg/L | 3.9 mg/L | 4.3 mg/L | 3.9 mg/L | 0.26 mg/L | > 10 mg/L | – | – | – | –
6 | COc1ccc(/C=C\c2cc(OC)c(OC)c(OC)c2)cc1O [COMBRETASTATIN A4] | 0.0006 mg/L (≈ 0.0019 µM) | 0.34 mg/L (≈ 1.07 µM) | – | – | 0.0008 mg/L (≈ 0.00253 µM) | 0.0009 mg/L (≈ 0.00284 µM) | 0.39 mg/L (≈ 1.23 µM) | – | – | – | –
7 | Manganese Stilstatin 2 2',3,3'-O-Triphosphate | 0.51 mg/L | > 10 mg/L | > 10 mg/L | 3.6 mg/L | > 10 mg/L | – | > 10 mg/L | – | – | 1.7 mg/L | > 10 mg/L
8 | COc1ccc(/C=C\c2cc(OC)c(OC)c(OC)c2)c(O)c1O [COMBRETASTATIN A-1] | 0.74 mg/L (≈ 2.23 µM) | – | – | – | 0.17 mg/L (≈ 0.512 µM) | 0.3 mg/L (≈ 0.903 µM) | 4.4 mg/L (≈ 13.2 µM) | – | – | – | –
9 | COc1cc(/C=C\c2ccc(OC)c(OP(=O)([O-])[O-])c2OP(=O)([O-])[O-])cc(OP(=O)([O-])[O-])c1OC.[Na+].[Na+].[Na+].[Na+].[Na+].[Na+] | 0.3 mg/L | 3.1 mg/L | 0.3 mg/L | 0.34 mg/L | 0.26 mg/L | 0.14 mg/L | 1.2 mg/L | – | – | – | –
10 | COc1ccc(/C=C\c2cc(OC)c3c(c2)OCO3)cc1O [Combretastatin A-2] | 0.043 mg/L (≈ 0.143 µM) | 0.47 mg/L (≈ 1.57 µM) | 0.0042 mg/L (≈ 0.014 µM) | – | 0.0054 mg/L (≈ 0.018 µM) | 0.016 mg/L (≈ 0.0533 µM) | 0.014 mg/L (≈ 0.0466 µM) | – | – | – | –
11 | COc1cc(/C=C\c2ccc(OC)c(OP(=O)([O-])[O-])c2OP(=O)([O-])[O-])cc(OP(=O)([O-])[O-])c1OC.[Zn+2].[Zn+2].[Zn+2] | 3.5 mg/L | > 10 mg/L | 3.5 mg/L | 4.5 mg/L | 4.6 mg/L | 0.15 mg/L | > 10 mg/L | – | > 10 mg/L | 1.3 mg/L | –
12 | COc1ccc(/C=C\c2cc(OC)c3c(c2)OCO3)cc1OP(=O)([O-])[O-].[Na+].[Na+] | 0.41 mg/L | 3.8 mg/L | 0.045 mg/L | – | 0.053 mg/L | 0.025 mg/L | 2.1 mg/L | – | – | – | –
13 | COc1cc(/C=C\c2ccc(OC)c(O[Si](C)(C)C(C)(C)C)c2O[Si](C)(C)C(C)(C)C)cc(O[Si](C)(C)C(C)(C)C)c1OC | > 10 mg/L | > 10 mg/L | > 10 mg/L | > 10 mg/L | > 10 mg/L | >100 mg/L | > 10 mg/L | – | – | – | –
14 | COc1cc(/C=C\c2ccc(OC)c(OP(=O)([O-])[O-])c2OP(=O)([O-])[O-])cc2c1OCO2.[Na+].[Na+].[Na+].[Na+] | 2.8 mg/L | > 10 mg/L | 3.4 mg/L | 2.8 mg/L | 2.5 mg/L | 1.4 mg/L | > 10 mg/L | – | – | – | –
15 | COc1cc(/C=C\c2ccc(OC)c(OP(=O)([O-])[O-])c2OP(=O)([O-])[O-])cc(OP(=O)([O-])[O-])c1OC.[Ca+2].[Ca+2].[Ca+2] | 0.35 mg/L | 5.2 mg/L | 0.38 mg/L | 0.46 mg/L | 0.37 mg/L | 0.14 mg/L | 3.6 mg/L | – | – | – | –
16 | COc1cc(/C=C\c2ccc(OC)c(OP(=O)([O-])[O-])c2OP(=O)([O-])[O-])cc(OC)c1OC.[Na+].[Na+].[Na+].[Na+] | 3.3 mg/L | > 10 mg/L | – | – | 2.7 mg/L | 0.3 mg/L | > 10 mg/L | – | – | – | –
17 | COc1cc(/C=C\c2ccc(OC)c(OP(=O)([O-])[O-])c2OP(=O)([O-])[O-])cc(OP(=O)([O-])[O-])c1OC.[Mg+2].[Mg+2].[Mg+2] | 0.32 mg/L | < 10 mg/L | 0.5 mg/L | 0.63 mg/L | 0.42 mg/L | 0.064 mg/L | 5.9 mg/L | – | 4.7 mg/L | > 10 mg/L | –
18 | COc1ccc(/C=C\c2cc(O)c(OC)c(OC)c2)c(O)c1O [STILSTATIN 2] | 1.5 mg/L (≈ 4.71 µM) | 1.9 mg/L (≈ 5.97 µM) | 1.6 mg/L (≈ 5.03 µM) | 1.6 mg/L (≈ 5.03 µM) | 1.8 mg/L (≈ 5.65 µM) | 1.7 mg/L (≈ 5.34 µM) | 1.8 mg/L (≈ 5.65 µM) | – | – | – | –
19 | COc1cc(/C=C\c2ccc(OC)c(O[Si](C)(C)C(C)(C)C)c2O[Si](C)(C)C(C)(C)C)cc2c1OCO2 | > 10 mg/L | > 10 mg/L | > 10 mg/L | > 10 mg/L | > 10 mg/L | >10 mg/L | > 10 mg/L | – | – | – | –
20 | COc1cc(/C=C\c2ccc(OC)c(OP(=O)([O-])[O-])c2OP(=O)([O-])[O-])cc2c1OCO2.[Li+].[Li+].[Li+].[Li+] | 2.7 mg/L | > 10 mg/L | 1.2 mg/L | 2.4 mg/L | 2.1 mg/L | 0.3 mg/L | > 10 mg/L | – | – | – | –
